According to patent US20140303188A1, “Substituted Cyclopenta Pyrimidine Bicyclic Compounds Having Antitmitotic And/Or Antitumor Activity And Methods Of Use Thereof” (DUQUESNE UNIVERSITY OF THE HOLY SPIRIT, priority 2008, published 2014):
Counter-ions that a name gives are not always drawn. Like-named read-outs stand apart in the source and are kept apart here. One block for each compound: values may come before it.

Legend:
[1] = system: MDA MB 435 human breast cancer; assay: flow cytometric analysis of cell cycle phase distribution; type: cell-based; settings: treatment for twenty four hours
[2] = system: A-10 rat smooth muscle cell line; assay: microtubule depolymerization immunofluorescence assay; type: cell-based; settings: 24 h; 250 nM AAG1, 500 nM AAG7, 40 nM AAG16
Method: A-10 rat smooth muscle cells were used since they grow as flat monolayers that are amenable to imaging. The A-10 cells were treated for twenty four (24) hours (h) with EtOH (control), 250 nM (nanomolar) AAG1, 500 nM AAG7, or 40 nM AAG16, respectively. Microtubules were then visualized by indirect immunofluorescence staining with beta-tubulin antibodies. […] Each of the compounds AAG1, AAG7, and AAG16 has potent nanomolar tubulin inhibitory activity. Compounds of the present invention having the structural Formulas III and IV, as set forth herein, inhibit the microtubule dynamics. The inhibition of microtubule dynamics hinders microtubule formation and results in mitotic arrest and initiation of apoptosis or programmed cell death.

[3] = system: SKOV3M6/6 (Pgp infected human ovarian cancer); assay: cytotoxicity towards Pgp infected ovarian cancer cell line; settings: for IC50: Homo sapiens; for calculated relative resistance value: SKOV3M6/6 versus SKOV3, FIG. 4
Method: (§1) Antimitotic compounds AAG1, AAG7, AAG12, AAG16, AAG20, and AAG26, Taxol®, and combrestastatinA4, were evaluated for cytotoxity towards the panel of human cell lines MDA MB 435 (human breast cancer), SKOV3 (human ovarian cancer), and SKOV3M6/6 (Pgp infected human ovarian cancer). […] The IC50 is the inhibitory concentration required to effectuate fifty percent inhibition of cell growth.

[4] = system: MDA MB 435, SKOV3, SKOV3M6/6; assay: cytotoxicity towards panel of human cell lines
Method: as §1

NCI 55 human tumor lines = NCI 55 human tumor lines in vitro screen; type: cell-based; settings: all 55 tumor cell lines
Source text: FIGS. 5a and 5b show the results of testing compound AAG1 of the present invention using National cancer Institute (NCl) 55 human tumor lines. The cells lines, which represent leukemia, non-small cell lung cancer, colon cancer, central nervous system cancer, melanoma, ovarian cancer, renal cancer, prostate cancer, and breast cancer, are listed in FIG. 5. Testing was in accordance with the NCI Developmental Therapeutics Program (DTP) In Vitro Cell Line Screening Project (IVCLSP). Methodology for testing under IVCLSP is provided at http://dtp.nci.gov/branches/btb/ivclsp.html.
GI50 is the concentration of chemical required to reduce the growth of treated cells to half that of untreated cells (i.e. control). GI50 represents the concentration of chemical required to effectuate fifty percent inhibition of cell growth.

[5] = system: MDA-MB-435 tumor cell line; assay: inhibition of proliferation, sulforhodamine B assay; type: cell-based; settings: read-out: IC50 ± SD (MDA-MB-435) Tumor cells
Method: (§2) However, the reverse orientation of methoxy and methylamino on the naphthyl, compound 11, has no microtubule depolymerization inhibitory activity up to 10 000 nM.

A-10 cells = assay: cell-based phenotypic screen of microtubule disrupting effects; parameters: species or system rat; settings: read-out: EC50 in A-10 cells (Tubulin depolymerization inhibitory acitivity)
Method: as §2

purified tubulin = assay: inhibition of tubulin assembly; type: biochemical; settings: read-out: Inhibition of tubulin assembly IC50 ± SD
Method: The effects of designed compounds 10-14 on the polymerization of purified tubulin were evaluated. This allows for the study of the direct interaction of the compounds with their intracellular target. The ability of these compounds to bind to the colchicine site on tubulin was evaluated by measuring inhibition of [^3H]colchicine binding to tubulin. […] It is therefore likely that 13 binds in the colchicine site.

[6] = system: colchicine site on tubulin; assay: inhibition of [3H]colchicine binding to tubulin; settings: 1 μM inhibitor
Method: This allows for the study of the direct interaction of the compounds with their intracellular target. The ability of these compounds to bind to the colchicine site on tubulin was evaluated by measuring inhibition of [^3H]colchicine binding to tubulin.

Wild type HeLa = assay: antiproliferative activity, isogenic HeLa pair, wild type; type: cell-based; settings: read-out: IC50 ± SD Wild type HeLa
Source text: (§3) One mechanism of drug resistance that can lead to chemotherapy failure with tubulin targeting agents is the expression of the βIII isotype of tubulin.

[7] = system: β-III Overexpressing HeLa; assay: antiproliferative activity, isogenic HeLa pair, βIII tubulin; type: cell-based; settings: for Rr: HeLa cell line pair, wild type and βIII tubulin; for IC50: read-out: IC50 ± SD β-III Overexpressing HeLa
Source text: as §3

tubulin = assay: antitubulin activities; type: cell-based; settings: for IC50: read-out: IC50 (antitubulin agent)
Source text: Compounds 1, 2 are cyclopenta pyrimidine compounds. Their antitubulin activities are set forth above. […] The structural differences between Compounds 1 and 2 lead to several pharmacological ramifications. Among them, the conformation of aniline rings maybe a pivotal factor that results in the affinity difference. In order to validate this, we set forth a preferred representative series of N-methyl-N-methoxynaphthyl cyclopenta[d]pyrimidin-4-amine (4) based on the high potent antibulin agent 3 (IC50=7.0 nM). All these preferred representative methoxynaphthyl substituted bicyclic compounds of this invention have the same function groups and molecular weight, similar Log D.

[8] = Homo sapiens, MDA-MB-435, MDA-MB-435

Compound: COc1ccc(N(C)c2nc(C)nc3c2CC(C)C3)cc1 (centres unmarked) (as salt: chloride) [AAG26, N-(4-Methoxyphenyl)-N,2,6-trimethyl-6,7-dihydro-5H-cyclopenta[d]pyrimidin-4-aminium chloride]
melting point: 196 to 198 °C

Compound: COc1ccc(N(C)c2nc(C)nc3oc(C)cc23)cc1 [AAG1, N-(4-methoxyphenyl)-N,2,6-trimethylfuro[2,3-d]pyrimidin-4-amine]
percentage of cells in the G2/M phases [1]: increased approximately two-fold | effect on microtubules (immunofluorescence, beta-tubulin antibodies) [2]: caused losses of microtubules | IC50 [3]: 171 nM | calculated relative resistance value [3]: 4.7 | cytotoxic activity toward each of the human cancer cell lines tested ([4]; MDA MB 435, SKOV3, SKOV3M6/6): have cytotoxic activity | GI50 (NCI 55 human tumor lines): single digit 10^−8 molar levels

Compound: COc1ccc(N(C)c2nc(N)nc3c2CC(C)C3)cc1 (centres unmarked) [AAG7, N^4-(4-Methoxyphenyl)-N^4,6-dimethyl-6,7-dihydro-5H-cyclopenta[d]pyrimidine-2,4-diamine]
effect on microtubules (immunofluorescence, beta-tubulin antibodies) [2]: caused losses of microtubules | cytotoxic activity toward each of the human cancer cell lines tested ([4]; MDA MB 435, SKOV3, SKOV3M6/6): have cytotoxic activity

Compound: COc1ccc(N(C)c2ncnc3occ(C)c23)cc1 [AAG16, N-(4-methoxyphenyl)-N,5-dimethylfuro[2,3-d]pyrimidin-4-amine]
percentage of cells in the G2/M phases [1]: increased approximately two-fold | effect on microtubules (immunofluorescence, beta-tubulin antibodies) [2]: caused losses of microtubules | IC50 [3]: 8.4 nM | cytotoxic activity toward each of the human cancer cell lines tested ([4]; MDA MB 435, SKOV3, SKOV3M6/6): have cytotoxic activity

Compound: COc1ccc(N(C)c2nc(C)nc3[nH]ccc23)cc1 [AAG20, N-(4-methoxyphenyl)-N,2-dimethyl-7H-pyrrolo[2,3-d]pyrimidin-4-amine]
percentage of cells in the G2/M phases [1]: increased approximately two-fold | cytotoxic activity toward each of the human cancer cell lines tested ([4]; MDA MB 435, SKOV3, SKOV3M6/6): have cytotoxic activity

Compound: COc1ccc(N(C)c2nc(C)nc3c2CC(C)C3)cc1 (centres unmarked) [AAG26, N-(4-Methoxyphenyl)-N,2,6-trimethyl-6,7-dihydro-5H-cyclopenta[d]pyrimidin-4-aminium chloride]
IC50 [3]: 3.2 nM | cytotoxic activity toward each of the human cancer cell lines tested ([4]; MDA MB 435, SKOV3, SKOV3M6/6): have cytotoxic activity

Compound: COc1ccc(/C=C\c2cc(OC)c(OC)c(OC)c2)cc1O [CA4, combretastatin A-4, reference compound]
IC50 ([5]; MDA-MB-435): 3.4 ± 0.6 nM | EC50 (A-10 cells; A-10 cells): 13 nM | IC50 (purified tubulin): […] | Inhibition of colchicine binding % Inhibition ± SD [6]: 90 ± 0.2% | IC50 (Wild type HeLa): 1.8 ± 0.4 nM | Rr [7]: 0.72 | IC50 [7]: 2.5 ± 0.7 nM

Compound: COc1ccc(Nc2nc(C)nc3c2CC(C)C3)cc1 (centres unmarked) [Compound 1]
antitubulin activity in words (tubulin): almost inactive

Compound: COc1ccc(N(C)c2nc(C)nc3c2CC(C)C3)cc1 (centres unmarked) [Compound 2]
IC50 (tubulin): 25.7 nM

IC50 (tubulin): 7 nM | IC50 [5, 8]: 7 ± 0.7 nM
Compound: COc1ccc(N(C)c2nc(C)nc3c2CCC3)cc1 [Compound 3]

EC50 (A-10 cells; Rattus norvegicus, A10): > 10000 nM
Compound: COc1ccc2c(N(C)c3ncnc4c3CCC4)cccc2c1 [Compound 10]

EC50 (A-10 cells; Rattus norvegicus, A10): > 10000 nM | IC50 (Wild type HeLa; Homo sapiens, HeLa): > 10000 nM | IC50 ([7]; Homo sapiens, HeLa): > 10000 nM
Compound: COc1ccc2c(N(C)c3nc(C)nc4c3CCC4)cccc2c1 [Compound 11, N,2-dimethyl-N-(6′-methoxynaphthyl-1′-amino)-cyclopenta[d]pyrimidin-4-amine]

IC50 [5, 8]: 33.7 ± 3.4 nM | IC50 (Wild type HeLa; Homo sapiens, HeLa): 15 nM | IC50 ([7]; Homo sapiens, HeLa): 14 ± 1 nM
Compound: COc1cccc2cc(N(C)c3ncnc4c3CCC4)ccc12 [Compound 12]
Rr [7]: 1.07

IC50 [5, 8]: 10 nM | IC50 ([5]; MDA-MB-435): 10.2 ± 0.46 nM | IC50 (Wild type HeLa; Homo sapiens, HeLa): 4 ± 1 nM | IC50 ([7]; Homo sapiens, HeLa): 4 ± 1 nM
Compound: COc1cccc2cc(N(C)c3nc(C)nc4c3CCC4)ccc12 [Compound 13, N,2-dimethyl-N-(5′-methoxynaphthyl-2′-amino)-cyclopenta[d]pyrimidin-4-amine]
Rr [7]: 1.0

IC50 [5, 8]: 234 ± 20 nM | EC50 (A-10 cells; Rattus norvegicus, A10): 500 ± 2.1 nM | IC50 (Wild type HeLa; Homo sapiens, HeLa): 85 ± 5 nM | IC50 ([7]; Homo sapiens, HeLa): 180 ± 40 nM
Compound: COc1ccc(N(C)c2nc(C)nc3c2CCC3)c2ccccc12 [Compound 14]
Rr [7]: 0.47

IC50 (Wild type HeLa; Homo sapiens, HeLa): 4 ± 2 nM | IC50 ([7]; Homo sapiens, HeLa): 13 ± 4 nM
Compound: CC(=O)O[C@@]12CO[C@@H]1C[C@H](O)[C@@]1(C)C(=O)[C@H](O)C3=C(C)[C@@H](OC(=O)[C@H](O)[C@@H](NC(=O)OC(C)(C)C)c4ccccc4)C[C@@](O)([C@@H](OC(=O)c4ccccc4)[C@H]21)C3(C)C [Docetaxel, docetaxel, reference compound]
Rr [7]: 0.31

IC50 (Wild type HeLa; Homo sapiens, HeLa): 5.3 ± 2 nM | IC50 ([7]; Homo sapiens, HeLa): 16 ± 1 nM
Compound: CC(=O)O[C@H]1C(=O)[C@@]2(C)[C@H]([C@H](OC(=O)c3ccccc3)[C@]3(O)C[C@H](OC(=O)[C@H](O)[C@@H](NC(=O)c4ccccc4)c4ccccc4)C(C)=C1C3(C)C)[C@]1(OC(C)=O)CO[C@@H]1C[C@@H]2O [Paclitaxel, paclitaxel, reference compound]
IC50 [3]: 4400 nM | calculated relative resistance value [3]: 2013 | Rr [7]: 0.33

Compound: N-(4-methoxy-phenyl)-6-methyl-5H-pyrrolo[3,2-d]pyrimidine-2,4-diamine [AAG12]
percentage of cells in the G2/M phases [1]: increased approximately two-fold | cytotoxic activity toward each of the human cancer cell lines tested [4]: have cytotoxic activity
